# Numbers after ± are expanded uncertainties.
# Legend:
# [1] = Crystal; DSC
# [2] = Molar enthalpy of transition or fusion; conditions: Crystal; DSC
smiles,measurement,setting,value
N#CCC(N)=O [2-cyanoethanamide],Triple point temperature,[1],392.84 ± 1.2 K
same,Molar enthalpy of transition or fusion,[2],5.41 ± 0.43 kcal/mol

# From the NIST ThermoML archive (doi:10.1021/acs.jced.8b01205)
